Source: US6172079A, “5-substituted-3-oxadiazolyl-1,6-naphthyridin-2(1H)-one derivatives” (Dainippon Pharmaceutical Co., Ltd., priority 1997, dated 2001)

Legend:
benzodiazepine receptor = assay: Benzodiazepine Receptor Binding Assay; conditions: read-out: BZP-receptor Binding IC50; [3H]-diazepam 1.5 nM; rat brain crude synaptosome membrane; 0° C., 20 min
[1] = test system: GABAA receptor complex (TBPS binding); assay: TBPS Binding Assay; set-up: species or system Wistar rats; conditions: [35S]TBPS 0.4 nM, GABA 1 μM, rat cerebral cortex membrane, +% inverse agonistic, 0% antagonistic
Experimental: The TBPS (t-butylbicyclophosphonothionate) binding assay and the preparation of the membrane specimen were done in a similar manner to the method of Biggio, G. et al. [cf. European Journal of Pharmacology, vol.
That is, to the cerebral cortex was added a 50-fold volume of an ice-cooled buffer (a 50 mM Tris-citrate buffer containing 100 mM sodium chloride, pH 7.4) and the mixture was homogenized at 0-4° C. and then centrifuged at 20,000 g for 20 minutes. The pellets thus obtained were once subjected to homogenization in a buffer and centrifugation by the same procedure as above and then kept in freezed state at -80° C. for more than 20 hours. On the test day, the freezed pellets were thawed and then subjected twice to the homogenization-centrifugation procedure as described above.
Subsequently, the filter was moved into a liquid scintillation vial and thereto was added a liquid scintillation cocktail (ACS-II, manufactured by Amersham, USA, 10 ml) and allowed to stand for a fixed period of time. […] Separately, the same procedures were repeated in the presence of Picrotoxin to determine the non-specific binding amount. The non-specific binding amount was deducted from the total binding amount to give the specific binding amount. The binding activity of the test compound was calculated by a variation rate, i.e., a rate of the specific binding amount of the test compound to the specific binding amount in control (using a solvent).

| SMILES | IC50 (benzodiazepine receptor) | TBPS binding Variation Rate [1] |
| --- | --- | --- |
| CC(C)c1nccc2[nH]c(=O)c(-c3nc(C4CC4)no3)cc12 [Example 233] | 1.58 nM | 31% |
| Cc1nc(-c2cc3c(-c4cccs4)nccc3[nH]c2=O)no1 [Example 92] | 0.75 nM | 32% |
| CCCc1nc(-c2cc3c(-c4ccccc4)nccc3[nH]c2=O)no1 [Example 38] | 1.31 nM | 25% |
| Cc1noc(-c2cc3c(-c4ccccc4Cl)nccc3[nH]c2=O)n1 [Example 179] | 4.73 nM | 37% |
| Cc1noc(-c2cc3c(-c4ccc(F)cc4)nccc3[nH]c2=O)n1 [Example 178] | 2.31 nM | 25% |
| Cc1nc(-c2cc3c(-c4cccc(Cl)c4)nccc3[nH]c2=O)no1 [Example 7] | 2.39 nM | 12% |
| CCc1nc(-c2cc3c(C4CCC4)nccc3[nH]c2=O)no1 [Example 21] | 4.21 nM | 21% |
| COc1ccc(-c2nccc3[nH]c(=O)c(-c4nc(C)no4)cc23)cc1 [Example 187] | 6.42 nM | 27% |
| Cc1nc(-c2cc3c(-c4ccsc4)nccc3[nH]c2=O)no1 [Example 93] | 1.75 nM | 34% |
| CC(C)c1nc(-c2cc3c(-c4ccc(F)cc4)nccc3[nH]c2=O)no1 [Example 47] | 2.33 nM | -11% |
| CCc1noc(-c2cc3c(C4CC4)nccc3[nH]c2=O)n1 [Example 194] | 1.06 nM | 32% |
| CC(C)c1nccc2[nH]c(=O)c(-c3noc(C4CC4)n3)cc12 [Example 50] | 0.88 nM | 40% |
| COc1ccccc1-c1nccc2[nH]c(=O)c(-c3nc(C)no3)cc12 [Example 185] | – | 19% |
| CCc1nc(-c2cc3c(CC4CCCCC4)nccc3[nH]c2=O)no1 [Example 24] | 4.47 nM | 22% |
| CCc1nc(-c2cc3c(C(C)C)nccc3[nH]c2=O)no1 [Example 16] | 3.69 nM | 38% |
| CCc1nc(-c2cc3c(-c4ccccc4Cl)nccc3[nH]c2=O)no1 [Example 96] | 2.82 nM | 16% |
| CCc1nc(-c2cc3c(-c4ccccc4F)nccc3[nH]c2=O)no1 [Example 95] | 1.09 nM | 13% |
| Cc1noc(-c2cc3c(-c4ccc(Cl)cc4)nccc3[nH]c2=O)n1 [Example 181] | – | 13% |
| CCc1noc(-c2cc3c(-c4ccco4)nccc3[nH]c2=O)n1 [Example 211] | 0.82 nM | 24% |
| CCc1nccc2[nH]c(=O)c(-c3noc(C4CC4)n3)cc12 [Example 48] | 1.49 nM | 18% |
| Cc1noc(-c2cc3c(-c4ccsc4)nccc3[nH]c2=O)n1 [Example 190] | 1.57 nM | 34% |
| CCc1nc(-c2cc3c(-c4cccc5ccccc45)nccc3[nH]c2=O)no1 [Example 100] | 1.31 nM | -23% |
| CCc1noc(-c2cc3c(C(C)C)nccc3[nH]c2=O)n1 [Example 193] | 4.1 nM | 44% |

| SMILES | IC50 (benzodiazepine receptor) | TBPS binding Variation Rate [1] |
| --- | --- | --- |
| CCc1noc(-c2cc3c(-c4cccc(Cl)c4)nccc3[nH]c2=O)n1 [Example 203] | 1.97 nM | 17% |
| O=c1[nH]c2ccnc(-c3ccsc3)c2cc1-c1noc(C2CC2)n1 [Example 123] | 1.12 nM | 12% |
| Cc1nc(-c2cc3c(C)nccc3[nH]c2=O)no1 [Example 2] | – | 53% |
| CCc1noc(-c2cc3c(-c4cccc(C)c4)nccc3[nH]c2=O)n1 [Example 206] | 1.16 nM | -13% |
| Cc1noc(-c2cc3c(-c4ccccc4F)nccc3[nH]c2=O)n1 [Example 176] | 2.13 nM | 39% |
| O=c1[nH]c2ccnc(-c3ccc(Cl)cc3)c2cc1-c1nc(C2CC2)no1 [Example 241] | 6.08 nM | -14% |
| CCc1nc(-c2cc3c(CC(C)C)nccc3[nH]c2=O)no1 [Example 20] | 2.77 nM | -13% |
| Cc1noc(-c2cc3c(-c4ccccc4)nccc3[nH]c2=O)n1 [Example 175] | 1.21 nM | 28% |
| Cc1ccc(-c2nccc3[nH]c(=O)c(-c4noc(C5CC5)n4)cc23)cc1 [Example 58] | 1.52 nM | -15% |
| CCc1noc(-c2cc3c(-c4ccccc4Cl)nccc3[nH]c2=O)n1 [Example 202] | 2.09 nM | 22% |
| O=c1[nH]c2ccnc(-c3ccc(F)cc3)c2cc1-c1noc(C2CC2)n1 [Example 54] | 1.21 nM | – |
| O=c1[nH]c2ccnc(C3CC3)c2cc1-c1nc(C2CC2)no1 [Example 234] | 0.84 nM | – |
| O=c1[nH]c2ccnc(-c3cccs3)c2cc1-c1nc(C2CC2)no1 [Example 246] | 1.46 nM | – |
| Cc1cccc(-c2nccc3[nH]c(=O)c(-c4noc(C5CC5)n4)cc23)c1 [Example 57] | 1.55 nM | – |
| C=C(C)c1nc(-c2cc3c(C4CC4)nccc3[nH]c2=O)no1 [Example 60] | 2.01 nM | – |
| COc1cccc(-c2nccc3[nH]c(=O)c(-c4noc(C5CC5)n4)cc23)c1 [Example 120] | 1.59 nM | – |
| Cc1noc(-c2cc3c(-c4cccc(F)c4)nccc3[nH]c2=O)n1 [Example 177] | – | 29% |
| Cc1nc(-c2cc3c(-c4ccc(Cl)cc4)nccc3[nH]c2=O)no1 [Example 8] | – | 13% |
| CCCc1nc(-c2cc3c(-c4cccc(F)c4)nccc3[nH]c2=O)no1 [Example 39] | 2.86 nM | – |
| CCc1nc(-c2cc3c(C)nccc3[nH]c2=O)no1 [Example 13] | – | 24% |
| CCc1nc(-c2cc3c(-c4ccc(C)cc4)nccc3[nH]c2=O)no1 [Example 32] | 3.29 nM | – |
| CC(C)c1nc(-c2cc3c(-c4ccsc4)nccc3[nH]c2=O)no1 [Example 115] | 1.52 nM | – |
| CCCc1noc(-c2cc3c(-c4ccsc4)nccc3[nH]c2=O)n1 [Example 222] | 1.49 nM | – |

The next lines start with the values.

| IC50 (benzodiazepine receptor) | TBPS binding Variation Rate [1] | SMILES |
| --- | --- | --- |
| 3.58 nM | 12% | Cc1nc(-c2cc3c(CC(C)C)nccc3[nH]c2=O)no1 [Example 3] |
| 1.2 nM | 34% | Cc1noc(-c2cc3c(-c4ccco4)nccc3[nH]c2=O)n1 [Example 188] |
| 2.51 nM | -13% | O=c1[nH]c2ccnc(-c3cccc(Cl)c3)c2cc1-c1nc(C2CC2)no1 [Example 240] |
| 0.69 nM | 25% | CCc1nc(-c2cc3c(C4CC4)nccc3[nH]c2=O)no1 [Example 17] |
| 0.61 nM | 38% | Cc1nc(-c2cc3c(-c4ccco4)nccc3[nH]c2=O)no1 [Example 91] |
| 2.35 nM | 32% | Cc1nc(-c2cc3c(-c4ccccc4F)nccc3[nH]c2=O)no1 [Example 87] |
| 0.96 nM | -9% | CC(C)c1nc(-c2cc3c(-c4ccccc4)nccc3[nH]c2=O)no1 [Example 45] |
| – | 28% | CC(C)c1nc(-c2cc3c(C(C)C)nccc3[nH]c2=O)no1 [Example 43] |
| – | 15% | CCCc1nc(-c2cc3c(C(C)C)nccc3[nH]c2=O)no1 [Example 36] |
| 0.74 nM | -11% | O=c1[nH]c2ccnc(-c3ccccc3)c2cc1-c1noc(C2CC2)n1 [Example 52] |
| 1.96 nM | 20% | CCc1nc(-c2cc3c(-c4cccnc4)nccc3[nH]c2=O)no1 [Example 106] |
| 1.22 nM | 13% | Cc1noc(-c2cc3c(-c4cccc(Cl)c4)nccc3[nH]c2=O)n1 [Example 180] |
| 1.59 nM | -10% | CC(C)c1noc(-c2cc3c(-c4ccc(F)cc4)nccc3[nH]c2=O)n1 [Example 228] |
| 9.45 nM | 38% | CCc1nc(-c2cc3c(CC)nccc3[nH]c2=O)no1 [Example 14] |
| 1.03 nM | 11% | CCc1noc(-c2cc3c(-c4ccccc4)nccc3[nH]c2=O)n1 [Example 198] |
| 3.57 nM | -12% | CC(C)c1noc(-c2cc3c(C4CC4)nccc3[nH]c2=O)n1 [Example 224] |
| 0.81 nM | 13% | O=c1[nH]c2ccnc(-c3ccco3)c2cc1-c1nc(C2CC2)no1 [Example 245] |
| 4.12 nM | -15% | Cc1ccc(-c2nccc3[nH]c(=O)c(-c4nc(C5CC5)no4)cc23)cc1 [Example 244] |
| 4.64 nM | – | CCc1nc(-c2cc3c(-c4ccccc4C)nccc3[nH]c2=O)no1 [Example 97] |
| 1.16 nM | – | CCCc1nc(-c2cc3c(-c4cccs4)nccc3[nH]c2=O)no1 [Example 110] |
| 1.87 nM | – | Cc1ccccc1-c1nccc2[nH]c(=O)c(-c3nc(C4CC4)no3)cc12 [Example 242] |
